# In patent US9101564B2, “Heparanase activity inhibitor, wrinkle improving agent containing same, and pharmaceutical composition” (Shiseido Company, Ltd., priority 2009, dated 2015):
# Molecular target: T1, heparanase (Homo sapiens, UniProt Q9Y251)
# T1 construct: the supernatant was recovered as cell extract; endogenous in cells; host or cells: A431 (human epithelial carcinoma cells), Triton X-100 lysate
# T1 sequence (Q9Y251 158-543 limits assumed): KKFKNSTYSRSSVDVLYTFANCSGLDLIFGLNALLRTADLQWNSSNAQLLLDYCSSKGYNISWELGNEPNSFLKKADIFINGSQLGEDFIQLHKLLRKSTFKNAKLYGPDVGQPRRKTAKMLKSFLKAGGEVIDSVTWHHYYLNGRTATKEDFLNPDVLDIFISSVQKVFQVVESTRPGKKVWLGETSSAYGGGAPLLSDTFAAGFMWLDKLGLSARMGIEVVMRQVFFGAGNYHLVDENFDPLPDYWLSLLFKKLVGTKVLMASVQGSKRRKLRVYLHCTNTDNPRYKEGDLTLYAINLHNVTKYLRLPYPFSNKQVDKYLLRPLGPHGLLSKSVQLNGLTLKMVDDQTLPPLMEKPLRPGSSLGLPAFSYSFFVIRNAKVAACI
# T1 sequence (Q9Y251 36-109 limits assumed): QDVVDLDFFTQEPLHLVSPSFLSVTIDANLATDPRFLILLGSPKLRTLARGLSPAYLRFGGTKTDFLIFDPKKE
# Test: Heparanase activity inhibition rate, A431 cell extract on biotinylated heparan sulfate-immobilized plate
# Assay type: biochemical
# Details: A431 cell extract 500 μg/mL, 37° C., 2 hours, DMSO 5%
# Description: A431 cells (human epithelial carcinoma cells) were cultured in 10% serum-containing DMEM (Dulbecco's modified Eagle medium). The cultured cells were solubilized in lysis buffer (50 mM Tris, 0.5% TritonX-100, 0.15 M sodium chloride, pH 4.5) and collected with a scraper, and then pipetted and allowed to stand on ice for 30 minutes. This was followed by centrifugation at 10,000 rpm for 10 minutes to remove the insoluble portion, and the supernatant was recovered as cell extract. The amount of protein in the cell extract was measured with a BCA protein assay kit (BCA Protein Assay Kit, PIERCE, Calif. 46141).
# The A431 cell extract was then diluted to 500 μg/mL with assay buffer (50 mM HEPES, 50 mM sodium acetate, 150 mM sodium chloride, 9 mM calcium chloride, 0.1% BSA). Next, the test compound was dissolved in DMSO and added to the diluted cell extract in proportions of 0.0005 mass %, 0.005 mass % and 0.05 mass %, and these were mixed to prepare sample solutions (DMSO final concentration: 5%). A control solution was prepared by mixing DMSO with the diluted cell extract to a final concentration of 5%. The sample solution and control solution were each seeded in a biotinylated heparan sulfate-immobilized plate at 100 μL/well. […] After further rinsing 3 times with PBS-T, TMB reagent (BIO-RAD, 172-1066) was added at 100 μL/well and reacted therewith, the reaction was terminated with 1N sulfuric acid, and the absorbance at 475 nm (OD475) was measured.
# Also, DMSO was added to a serial diluent prepared with the aforementioned A431 cell extract assay buffer (cell extract concentrations: 500 μg/mL, 50 μg/mL, 5 μg/mL, 0.5 μg/mL), to a final concentration of 5% without addition of the test compound, to obtain a mixture (solution for calibration curve). The solution for the calibration curve was subjected to treatment by the same procedure described above, from seeding of the biotinylated heparan sulfate-immobilized plate, and the OD475 was measured. […]
smiles,measurement,setting,value
"CC(C)Cc1ccc(O)cc1O [4-Isobutylresorcinol, 4-isobutylresorcinol]",Heparanase activity inhibition rate,added concentration 0.0005 mass %,37.64%
same,Heparanase activity inhibition rate,added concentration 0.005 mass %,75.98%
same,Heparanase activity inhibition rate,added concentration 0.05 mass %,94.74%
